Numbered stars: 1 amine (or outer) side, 2 acyl side, 3 side chain; on linkers, the order of the positions; unused ones are H or OH. Square brackets hold non-standard residues; d marks the D form. Side chains are listed from the residue outwards. Peptide text beside a SMILES is read from it. * marks the point of attachment. C18 diacid = O=C(O)CCCCCCCCCCCCCCCCC(=O)*; γGlu = O=C(O)[C@H](CCC(=O)[*:2])N[*:1]; AEEA = NCCOCCOCC(=O)O; Aib = CC(C)(N)C(=O)O
Key:
human Gcg receptor = target: T1, human Gcg receptor (Homo sapiens, UniProt P47871); test: [125I]-Glucagon binding (SPA), human Gcg receptor; conditions: read-out: hGLcgR Ki, nM (SEM, n)
T1 construct: expressed in transfected cells; crude membranes
Method in brief: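 Scintillation counts are taken after membranes and WGA beads incubate and settle for 12 hours at room temperature. Buffer is 25 mM HEPES, pH 7.4, with CaCl2, MgCl2, bacitracin and Tween-20. Ki values, from four-parameter IC50 fits, are geometric means over independent days.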

human GIP receptor = target: T2, human GIP receptor (Homo sapiens, UniProt P48546); test: [125I]-GIP binding (SPA), human GIP receptor; conditions: read-out: hGIPR Ki, nM (SEM, n)
T2 construct: expressed in transfected cells; crude membranes
T2 sequence (P48546 22-466): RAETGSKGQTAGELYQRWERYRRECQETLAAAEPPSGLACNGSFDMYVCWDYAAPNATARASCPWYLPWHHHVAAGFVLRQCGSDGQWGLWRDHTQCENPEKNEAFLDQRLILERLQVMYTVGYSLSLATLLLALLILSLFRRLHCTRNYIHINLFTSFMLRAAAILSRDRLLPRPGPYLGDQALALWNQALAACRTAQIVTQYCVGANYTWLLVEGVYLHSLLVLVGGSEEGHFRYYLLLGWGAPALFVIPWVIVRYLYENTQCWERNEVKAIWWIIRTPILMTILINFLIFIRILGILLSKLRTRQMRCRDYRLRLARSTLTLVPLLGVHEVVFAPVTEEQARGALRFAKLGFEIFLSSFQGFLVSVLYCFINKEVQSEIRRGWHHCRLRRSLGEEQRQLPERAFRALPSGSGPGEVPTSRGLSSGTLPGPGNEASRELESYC

[1] = target: human GLP-1 receptor (GLP-1R) (Homo sapiens, UniProt P43220); test: cAMP pharmacological functional assay in presence of casein, hGLP-1R; assay type: cell-based; conditions: HEK293 cells expressing hGLP-1R, 0.1% Casein, geometric mean; read-out: hGLP1R cAMP Rel EC50 nM (SEM, n)
[2] = target: T3, gastric inhibitory peptide receptor (GIPR) (Homo sapiens, UniProt P48546); test: cAMP pharmacological functional assay in presence of casein, hGIPR; assay type: cell-based; conditions: HEK293 cells expressing hGIPR, 0.1% Casein, geometric mean; read-out: hGIPR cAMP Rel EC50 nM (SEM, n)
T3 sequence (P48546 22-466): T2 sequence (P48546 22-466)

human GLP-1R [3] = target: T4, human GLP-1R (Homo sapiens, UniProt P43220); test: [125I]-GLP-1 binding (SPA), human GLP-1 receptor; design: expressed in transfected cells; crude membranes; conditions: read-out: hGLP1R Ki, (nM) (SEM, n)
Method in brief: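 Assay buffer: HEPES 25 mM, pH 7.4, CaCl2 2.5 mM, MgCl2 1 mM, with EDTA-free protease inhibitors. Receptor came from crude cell membranes prepared by homogenization and centrifugation at 4° C. IC50s came from four-parameter fits (maximum, minimum, IC50, Hill slope) and were expressed as Ki geometric means with SEM.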

human GLP-1R [4] = target: T4, human GLP-1R; test: GLP-1R HEK293 cell membrane [35S]GTPγS binding assay; assay type: biochemical; design: expressed in transfected cells; host or cells: HEK293 cells expressing human GLP-1R; membranes; conditions: HEK293 cell membranes expressing human GLP-1R, [35S]GTPγS binding; read-out: hGLP1R GTPgS Rel EC50 nM (SEM, n)
Method in brief: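 Membranes from HEK293 cells expressing the receptor incubated with peptide and […] [35S]GTPγS in HEPES pH 7.4 buffer with NaCl, MgCl2, saponin and BSA, 30 min at room temperature. Gαs-bound label captured by anti-Gαs antibody/SPA beads and counted; EC50 from four-parameter logistic fit.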

T4 sequence (P43220 24-463): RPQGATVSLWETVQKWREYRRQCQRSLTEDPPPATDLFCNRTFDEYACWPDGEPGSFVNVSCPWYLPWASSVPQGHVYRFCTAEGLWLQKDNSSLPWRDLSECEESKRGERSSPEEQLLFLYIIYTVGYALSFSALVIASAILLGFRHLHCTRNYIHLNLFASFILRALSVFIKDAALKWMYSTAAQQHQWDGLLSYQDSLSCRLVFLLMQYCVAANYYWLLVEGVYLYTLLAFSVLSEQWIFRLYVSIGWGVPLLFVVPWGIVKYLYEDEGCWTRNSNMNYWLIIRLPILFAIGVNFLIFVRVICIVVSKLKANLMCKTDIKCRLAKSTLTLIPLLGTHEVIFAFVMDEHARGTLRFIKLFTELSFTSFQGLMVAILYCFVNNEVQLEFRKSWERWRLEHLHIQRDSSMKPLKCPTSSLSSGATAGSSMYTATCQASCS
T1 sequence (P47871 26-477): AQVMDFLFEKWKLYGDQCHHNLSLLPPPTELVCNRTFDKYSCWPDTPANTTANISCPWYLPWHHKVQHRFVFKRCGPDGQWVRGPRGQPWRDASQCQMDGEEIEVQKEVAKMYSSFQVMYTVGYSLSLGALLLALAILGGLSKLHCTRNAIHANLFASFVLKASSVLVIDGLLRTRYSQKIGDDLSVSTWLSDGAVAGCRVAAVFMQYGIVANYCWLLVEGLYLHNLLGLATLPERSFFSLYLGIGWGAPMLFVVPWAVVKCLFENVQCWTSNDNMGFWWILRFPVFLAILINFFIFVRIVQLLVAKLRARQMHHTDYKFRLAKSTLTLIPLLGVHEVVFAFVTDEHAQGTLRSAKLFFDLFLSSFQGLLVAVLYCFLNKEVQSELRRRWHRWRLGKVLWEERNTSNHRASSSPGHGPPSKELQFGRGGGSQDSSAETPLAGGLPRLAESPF
Chain of human GLP-1 receptor (GLP-1R) (P43220 24-463): as the sequence (P43220 24-463) above

CC[C@H](C)[C@H](NC(=O)[C@H](CC(C)C)NC(=O)[C@H](Cc1ccc(O)cc1)NC(=O)[C@H](CCC(=O)O)NC(=O)[C@@H](NC(=O)[C@H](Cc1ccccc1)NC(=O)[C@H](C)NC(=O)C(C)(C)NC(=O)[C@H](CCC(N)=O)NC(=O)[C@H](C)NC(=O)[C@H](CCCCNC(=O)COCCOCCNC(=O)COCCOCCNC(=O)CC[C@H](NC(=O)CCCCCCCCCCCCCCCCC(=O)O)C(=O)O)NC(=O)[C@H](CCCCN)NC(=O)[C@H](CC(=O)O)NC(=O)[C@H](CC(C)C)NC(=O)[C@H](CC(C)C)NC(=O)[C@@H](NC(=O)[C@H](CO)NC(=O)[C@H](Cc1ccc(O)cc1)NC(=O)[C@H](CC(=O)O)NC(=O)[C@H](CO)NC(=O)[C@@H](NC(=O)[C@H](Cc1ccccc1)NC(=O)[C@@H](NC(=O)CNC(=O)[C@H](CCC(=O)O)NC(=O)C(C)(C)NC(=O)[C@@H](N)Cc1ccc(O)cc1)[C@@H](C)O)[C@@H](C)O)[C@@H](C)CC)[C@@H](C)CC)C(=O)N[C@@H](C)C(=O)NCC(=O)NCC(=O)N1CCC[C@H]1C(=O)N[C@@H](CO)C(=O)N[C@@H](CO)C(=O)NCC(=O)N[C@@H](C)C(=O)N1CCC[C@H]1C(=O)N1CCC[C@H]1C(=O)N1CCC[C@H]1C(=O)N[C@@H](CO)C(N)=O [Example 316] (H-Y[Aib]EGTFTSDYSILLDKK([AEEA-AEEA-γGlu-C18 diacid])AQ[Aib]AFIEYLIAGGPSSGAPPPS-NH2)
Ki (human Gcg receptor): 654 nM
Ki (human GIP receptor): 0.0418 nM
EC50 [1]: 0.122 nM
EC50 [2]: 0.024 nM
Ki (human GLP-1R [3]): 0.957 nM
EC50 (human GLP-1R [4]): 0.766 nM

— patent US12252524B2, “GIP/GLP1 co-agonist compounds” (Eli Lilly and Company, priority 2018, dated 2025)
